The test system of assay [1] is KPL-4 human breast carcinoma xenograft. Nature of the assay: Antitumor activity in KPL-4 orthotopic xenograft in athymic nude mice, combination with trastuzumab (Example 1). It is filed as in vivo. The note with it: monotherapy 3, 4 or 6 mg/kg; one week after final injection; control 2.5% DMSO-saline plus 20 mg/kg human IgG. The protocol: The KPL-4 human breast carcinoma cell line was kindly donated by Prof. Kurebayashi, Kawasaki Medical Center. The cells were cultured in Dulbecco's MEM (Sigma Chemical Co.) supplemented with 5% (v/v) fetal bovine serum (Roche Diagnostics).
One hundred forty (140) 5-week-old female athymic nude mice (BALB/c nu/nu) were purchased from Charles River Japan, Inc. (Yokohama, Japan). The mice were housed in an air-conditioned room (temperature 22±2° C., relative humidity 55±10%) under 12 h light/dark cycles. The mice were given sterilized CE-2 and tap water with 25μg/mL gentamycin ad libitum. […]
The in vivo evaluation procedure for anticancer drugs was based on the methods described by Plowman, et al. (1997) for xenograft models. […] The tumor volume and body weight of each mouse were measured twice a week. […] One week after the final injection, tumor growth inhibition (TGI) was calculated using the formula (1-T/C)×100 (%), where T (treated group) and C (control group) represent the mean tumor volume change. ED50 values were calculated from values of tumor growth inhibition on day 21 using the XL fit program. […]
Packaged software (SAS preclinical package version 5.0,SAS Institute Japan, Ltd.) was used for the statistical analysis. […] ED50s were calculated from values of tumor growth inhibition percentage using XL fit program #509 (MS Excel Add […], ID Business Solutions Ltd.)

Assay [2] deals with NCI-H460 human large cell lung carcinoma xenograft. Nature of the assay: Antitumor activity in NCI-H460 subcutaneous xenograft in athymic nude mice, combination with cisplatin (Example 4). It is filed as in vivo. To be noted: day 12. The protocol: The NCI-H460 human large cell lung carcinoma cell line was purchased from American Type Culture Collection (MD, U.S.A.). The cells were cultured in RPMI-1640 medium (cat. # R8758, lot 12K2310, exp 01/03; lot 82K2497, exp 08/03; Sigma-Aldrich corporation, MO, U.S.A.) supplemented with 10% (v/v) fetal bovine serum (cat. # 047115, lot # 31300124; Roche Diagnostics KK, Tokyo, Japan).
Sixty of 5-week-old male athymic nude mice (BALB/c nu/nu) were purchased from Charles River Japan, Inc. (Yokohama, Japan). All mice were kept for 8 days in the animal facility of Kamakura Research Laboratories of Chugai Pharmaceutical Co., Ltd. before subjection to the experiment.
The title compound was synthesized at Kamakura Research Laboratories of Chugai Pharmaceutical Co., Ltd. CDDP (Randa™, lot # 924150) was obtained from Nippon Kayaku Co., Ltd. (Tokyo, Japan). The title compound was dissolved in dimethyl sulfoxide (DMSO) and diluted into 2.5 % DMSO solution with saline (for Injection; Ohtsuka Pharmaceutical Industry Co., Ltd., Tokushima, Japan) at the date of administration. CDDP was diluted with saline at the date of administration.
The in vivo evaluation procedure for anticancer drugs was based on the methods described by Plowman, et al. (1997) for xenograft models. See, “Anticancer Drug Development Guide: Preclinical Screening, Clinical Trials, and Approval, Teicher B (ed) pp. 101-125, specifically Chap. 6, “Human Tumor Xenograft Models in NCI Drug Development”, hereby incorporated by reference. A single cell suspension of NCI-H460 (5.6×10^6 cells per mouse) was inoculated subcutaneously into the right flank of each mouse. The tumor volume was estimated by using the equation ab^2/2, where a and b represent tumor length and width, respectively. Mice bearing tumors of between 150 and 245 mm^3 were selected on day 7 after tumor inoculation and were randomly divided into 8 groups, consisting of 5 mice each. Mean tumor volume and body weight of the selected mice were 187 mm3 and 24.3 g, respectively. Drug administration was initiated after mice were divided into groups. The title compound (2 mg/kg or 3 mg/kg), CDDP (5 mg/kg or 6.7 mg/kg) and each vehicle were administered intravenously. Tumor volume and body weight of each mouse were measured twice a week. […] Tumor growth inhibition was calculated using the equation (1-ΔT/ΔC)×100, where ΔT represents the difference in tumor volume from the initial treatment date of the treated group and ΔC represents the difference in tumor volume from the initial treatment date of the vehicle group.

Consider `CC[C@H](C)[C@@H]([C@@H](CC(=O)N1CCC[C@H]1[C@H](SC)[C@@H](C)C(=O)N(C)CCc1cccc(O)c1)OC)N(C)C(=O)[C@@H](NC(=O)[C@H](C(C)C)N(C)C)C(C)C` [compound of formula (I-A), N-[1-({1-sec-Butyl-4-[2-(2-{[2-(3-hydroxy-phenyl)-ethyl]-methyl-carbamoyl}-1-methylsulfanyl-propyl)-pyrrolidin-1-yl]-2-methoxy-4-oxo-butyl}-methyl-carbamoyl)-2-methyl-propyl]-2-dimethylamino-3-methyl-butyramide], for which, in assay [1], the “volume of tumor in comparison with control” value is “decreased significantly”. Moreover, the “reduction of tumor growth” value in assay [2] (2 mg/kg (1/3 MTD) i.v. weekly x3) is 45%; in assay [2] (3 mg/kg (1/2 MTD) i.v. weekly x3) it was 93%.

These data come from patent publication US20060292158A1, “Method for the treatment of cancer using a novel pharmaceutical composition containing at least one dolastatin 10 derivative” (priority 2004, published 2006).
